For assay [1], the target named is PEG-3 (UniProt Q6IN02). The assay is described as follows: inhibition of PEG-3 promoter-driven reporter – cell-based, HeLa, luciferase, CREF/GAPDH counter-screen panel, dose response (AID 624167). Conditions: HeLa PEG-Prom luciferase reporter, overnight, CREF/GAPDH counter-screens, mean of runs.
Assay [2] relates to PEG-3. Described as above. Conditions: HeLa PEG-Prom luciferase reporter, overnight, CREF/GAPDH counter-screens. (In general: Reporter assays use an easily measured gene product as a stand-in for the process of interest.)
Where [3] appears, read: run 1, dose range 1, individual replicate IC50 per panel.
The mark [4] stands for this setting: run 2, dose range 1, individual replicate IC50 per panel.

Active and inactive are the calls of the source.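 Rule for the calls: active = mean IC50 for reducing PEG3 promoter reporter signal at or below a set limit, with IC50 above the limit in both counter screens; inactive = the rest, including counter screen hits.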

As usually defined, the IC50 is the concentration at which inhibition is half-maximal.

Chain of PEG-3 (UniProt Q6IN02) (Q6IN02 whole entry, looked up): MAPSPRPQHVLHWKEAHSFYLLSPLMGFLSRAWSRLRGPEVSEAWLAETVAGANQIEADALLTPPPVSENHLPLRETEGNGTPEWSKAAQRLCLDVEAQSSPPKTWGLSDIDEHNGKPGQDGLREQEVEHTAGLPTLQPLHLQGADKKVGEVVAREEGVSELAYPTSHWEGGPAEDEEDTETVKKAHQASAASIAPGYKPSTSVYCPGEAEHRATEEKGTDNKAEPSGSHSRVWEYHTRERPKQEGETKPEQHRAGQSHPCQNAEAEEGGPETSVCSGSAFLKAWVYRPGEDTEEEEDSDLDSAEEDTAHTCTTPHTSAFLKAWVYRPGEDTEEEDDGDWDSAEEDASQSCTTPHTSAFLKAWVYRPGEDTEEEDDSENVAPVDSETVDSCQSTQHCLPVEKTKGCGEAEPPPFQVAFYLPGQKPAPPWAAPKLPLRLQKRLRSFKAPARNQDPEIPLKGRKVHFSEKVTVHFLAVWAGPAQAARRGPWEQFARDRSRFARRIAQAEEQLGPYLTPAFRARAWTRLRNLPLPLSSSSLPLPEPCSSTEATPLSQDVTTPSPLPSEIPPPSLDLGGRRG

As for `Cc1ccc(-c2cc(C(=O)Nc3nccs3)c3ccccc3n2)c(C)c1`, the IC50 entry at PEG-3 [1] was “inactive”. Further, the IC50 in the assay with PEG-3 [2] (setting [3]) is 32.1 µM; in the assay on PEG-3 [2] (setting [4]) it was over 100 µM.

Take `COc1ccc2nc3n(c(=O)c2c1)-c1cc2ccccc2cc1C(=O)NC3Cc1ccc(O)cc1` (stereo not drawn): the IC50 was 17.5 µM on PEG-3 [1], 21.2 µM with PEG-3 [2] (setting [3]) and 13.9 µM in the assay with PEG-3 [2] (setting [4]).

As to `COc1ccccc1NC(=O)Nc1nc(C(N)CCc2ccccc2)cs1` (stereo not drawn), the IC50 on PEG-3 [1] is 14.2 µM; with PEG-3 [2] (setting [3]) it was 12.2 µM; in the assay on PEG-3 [2] (setting [4]), 16.3 µM.

For `COc1ccc2c(c1OC)C(=O)N1c3ccccc3C(=O)N(c3ccccc3F)C21` (stereo not drawn), the IC50 on PEG-3 [1] is 13.4 µM; in the assay on PEG-3 [2] (setting [3]), 15.1 µM; with PEG-3 [2] (setting [4]), 11.6 µM.

Take `COc1cccc(NC(=O)CN(C)C(=O)c2cccnc2Nc2cccc(C(F)(F)F)c2)c1`: at PEG-3 [1], the IC50 result was “inactive”. Also, the IC50 with PEG-3 [2] (setting [3]) worked out at 22.5 µM; in the assay with PEG-3 [2] (setting [4]), 24.2 µM.

On to `CC(=O)OC(C)(C)/C=C/C(=O)C(C)(O)C1[C@H](O)C[C@@]2(C)C3CC=C4C(CC[C@@H](O)C4(C)C)[C@]3(CO)C(=O)C[C@]12C` (stereo partly drawn), for which the IC50 result at PEG-3 [1] is “inactive”. The IC50 in the assay on PEG-3 [2] (setting [3]) is 47 µM; with PEG-3 [2] (setting [4]), under 0.2 µM.

On to `COC(=O)c1ccccc1-c1ccc(/C=N/Nc2nc(N3CCCC3)nc(N3CCCC3)n2)o1`, for which the IC50 entry on PEG-3 [1] is “inactive”. Moreover, the concentration for half-maximal inhibition (IC50) in the assay with PEG-3 [2] (setting [3]) turned out to be 26.8 µM; in the assay with PEG-3 [2] (setting [4]) it was 34.7 µM.

Consider `COc1cc(C(=O)/C=C/c2cccnc2)c([N+](=O)[O-])cc1OC`, for which the IC50 at PEG-3 [1] was 18.3 µM; in the assay on PEG-3 [2] (setting [3]) it was 19.3 µM; in the assay with PEG-3 [2] (setting [4]) it was 17.3 µM.

Turning to `COc1ccc(C(C(=O)NCC2CCCO2)N(Cc2cccs2)C(=O)c2snc(C(N)=O)c2N)cc1` (stereo not drawn), the IC50 entry at PEG-3 [1] is “inactive”. Besides, the IC50 is over 100 µM with PEG-3 [2] (setting [3]) and 9.42 µM in the assay with PEG-3 [2] (setting [4]).

On to `NC(=O)C1CCN(C2=C(Cl)C(=O)c3ccccc3C2=O)CC1`, for which the IC50 is 17.3 µM on PEG-3 [1], 17.9 µM in the assay on PEG-3 [2] (setting [3]) and 16.6 µM in the assay with PEG-3 [2] (setting [4]).

Take `CC1=CC(C)[C@H](/C=N/n2c(=O)[nH]c3c([nH]c4ccc(Br)cc43)c2=O)C(C)C1` (stereo partly drawn): the IC50 result on PEG-3 [1] was “inactive”. Further, the IC50 is over 100 µM in the assay with PEG-3 [2] (setting [3]) and 5.42 µM in the assay with PEG-3 [2] (setting [4]).

As for `CCN1CCN(Cc2ccc(NC(=O)c3cc(NC(=O)c4ccno4)cc(OC)c3)cc2C(F)(F)F)CC1`, the IC50 result on PEG-3 [1] is “inactive”. For the same molecule, the figures for the IC50 in the assay with PEG-3 [2] (setting [3]) and with PEG-3 [2] (setting [4]) were 40.6 µM and 45.3 µM, respectively.

Consider `CC(=O)Nc1ccc(Nc2nc(C)c([N+](=O)[O-])c(Nc3ccccc3)n2)cc1`, for which the IC50 result on PEG-3 [1] is “inactive”. The IC50 was 22.6 µM with PEG-3 [2] (setting [3]) and over 100 µM with PEG-3 [2] (setting [4]).

With `CC(C)(C)C(=O)Nc1cc2nn(-c3ccccc3)nc2cc1Cl`, the results for the IC50 on PEG-3 [1], with PEG-3 [2] (setting [3]) and in the assay on PEG-3 [2] (setting [4]) were 12.2 µM, 10.9 µM and 13.5 µM, respectively.

Take `Cc1ccc(F)cc1-c1cc2nc(NCCCN(C)C)n(C)c(=O)c2s1`: the IC50 result on PEG-3 [1] is “inactive”. The figures for the IC50 with PEG-3 [2] (setting [3]) and in the assay with PEG-3 [2] (setting [4]) were 30.9 µM and 59.5 µM, respectively.

For the molecule `CC(C)CC(N)c1csc(NC(=O)Nc2ccccc2C(C)(C)C)n1` (stereo not drawn), on PEG-3 [1], the IC50 result was “inactive”. Moreover, the IC50 in the assay with PEG-3 [2] (setting [3]) stood at 22.7 µM; with PEG-3 [2] (setting [4]), 18.2 µM.

In the case of `CCN(CC)C(=O)c1ccc(NC(=O)Nc2ccccc2F)cc1`, the values for the IC50 on PEG-3 [1], in the assay on PEG-3 [2] (setting [3]) and in the assay with PEG-3 [2] (setting [4]) were 17.2 µM, 18.8 µM and 15.6 µM, respectively.

In the case of `Cc1cccc(N2CCN(C(=O)C3CCN(c4ncnc5c4nc4n5CCCCC4)CC3)CC2)c1C`, the IC50 result at PEG-3 [1] was “inactive”. Moreover, the IC50 in the assay on PEG-3 [2] (setting [3]) turned out to be 30.2 µM; in the assay with PEG-3 [2] (setting [4]), 18.3 µM.

In the case of `CCN(CC)CCSc1nnc2c3cc(C)ccc3n(Cc3ccccc3)c2n1`, the IC50 entry on PEG-3 [1] was “inactive”. The IC50 in the assay on PEG-3 [2] (setting [3]) amounted to 30.6 µM; in the assay on PEG-3 [2] (setting [4]), 93.6 µM.

As to `O=C1NC(=O)N(Cc2ccc(F)cc2)C(=O)/C1=C\C=C\c1ccco1`, the IC50 at PEG-3 [1] is 14.9 µM; in the assay with PEG-3 [2] (setting [3]) it was 16.8 µM; in the assay on PEG-3 [2] (setting [4]), 13 µM.

Consider `CCC1(c2ccccc2)NC(=O)N(CC(=O)Nc2cc(S(=O)(=O)N3CCCCCC3)ccc2OC)C1=O` (stereo not drawn), for which the figures for the IC50 at PEG-3 [1], in the assay with PEG-3 [2] (setting [3]) and in the assay with PEG-3 [2] (setting [4]) were 13.7 µM, 13.9 µM and 13.5 µM, respectively.

Turning to `CCOC(=O)c1c(NC(=O)CSc2nnnn2-c2ccccc2OCC)sc2c1CC(C)(C)NC2(C)C`, the IC50 result on PEG-3 [1] is “inactive”. The IC50 in the assay with PEG-3 [2] (setting [3]) turned out to be 19.6 µM; with PEG-3 [2] (setting [4]), 39.9 µM.

Regarding `Cc1cc(C)c2ccc(N)nc2c1O`, the IC50 at PEG-3 [1] was 15.3 µM; in the assay on PEG-3 [2] (setting [3]) it was 7.69 µM; in the assay with PEG-3 [2] (setting [4]), 22.9 µM.

Regarding `O=C(CCN1C(=O)/C(=C/c2ccc(F)cc2)SC1=S)N[C@@H](CO)Cc1ccccc1`, the IC50 entry on PEG-3 [1] was “inactive”. The values for the IC50 with PEG-3 [2] (setting [3]) and in the assay on PEG-3 [2] (setting [4]) were 12.1 µM and over 100 µM, respectively.

In the case of `COc1ccc(CC(=O)N(Cc2ccccc2)c2ccccc2)cc1S(=O)(=O)N1CCOCC1`, the IC50 entry at PEG-3 [1] was “inactive”. For the same molecule, the concentration for half-maximal inhibition (IC50) in the assay with PEG-3 [2] (setting [3]) is 50.5 µM; with PEG-3 [2] (setting [4]), over 100 µM.

As to `COc1ccc(-c2nc(NC(=O)c3n[nH]c(=O)c4ccccc34)sc2C)cc1`, on PEG-3 [1], the IC50 result is “inactive”. For the same molecule, the IC50 in the assay on PEG-3 [2] (setting [3]) was 0.904 µM; with PEG-3 [2] (setting [4]), over 100 µM.

Source of the values: PubChem BioAssay AID624167 (Sanford-Burnham Center for Chemical Genomics, 2012).
